# Data taken from US6541630B1 (priority 1997, dated 2003).
row,melting point,Compound
1,181 to 183 °C,"Nn1cnc2c(Br)csc2c1=O [Compound 6d, 3-Amino-7-bromo-3,4-dihydrothieno[3,2-d]pyrimidin-4-one]"
2,301 to 304 °C,"O=c1[nH]cnc2sc(Br)cc12 [Compound 6g, 6-Bromo-3,4-dihydrothieno[2,3-d]pyrimidine-4-one]"
3,238 to 240 °C,"O=c1[nH]cnc2cc(Br)sc12 [Compound 8a, 6-Bromo-3,4-dihydrothieno[3,2-d]pyrimidin-4-one]"

# Second part, the compound before the results:
row,Compound,melting point
1,Cc1cc2ncn(C)c(=O)c2s1,188 to 190 °C
2,Cc1sc2c(=O)[nH]cnc2c1Br,320 to 322 °C
3,CC(=O)Nn1cnc2c(Br)csc2c1=O,273 °C
4,CC(=O)On1cnc2c(Br)csc2c1=O,159 to 162 °C
